Laboratory results reported in patent publication US20150164064A1, “METHODS, COMPOSITIONS AND DEVICES FOR INDUCING STASIS IN CELLS, TISSUES, ORGANS, AND ORGANISMS” (Fred Hutchinson Cancer Research Center, priority 2003, published 2015).
“Also recorded” adds a separate entry of the source. Where two headings read alike, the source gives them in different places.

Columns and labels:
rats = conditions: cited from earlier work
mice [1] = tested on: mice
humans [2] = conditions: 500 ppm; cited from earlier work
mice [3] = conditions: 80 ppm, cited from earlier work
mice [4] = experiment: Core body temperature, heart rate and movement of mice by telemetry in regulated H2S atmosphere; type: in vivo, mouse; conditions: 80 ppm
Text: Implantation of telemetry devices.
Exposure of Mice to Regulated Atmosphere.
Regulation of Ambient Temperature. […] Mice were exposed to regulated atmosphere as described above.

human keratinocytes = experiment: Preservation of human skin in carbon monoxide; keratinocyte growth and colony formation; type: cell-based
Description: Three human foreskins were obtained for this purpose. The foreskin tissue was preserved in keratinocyte growth medium (KGM) containing insulin, EGF (0.1 ng/ml), hydrocortisone ([…]) and bovine pituitary extract (approx. 50 micrograms/ml of protein). Foreskins were rinsed in PBS, and excess fatty tissue was removed. Each foreskin sample was divided into 2 equal pieces. Each piece was placed into a separate container containing a solution of PBS with 24 mg/ml of Dispase II (from Bacillus Polmyxa EC 3.4.24.4:Roche Diagnostics Corp., Indianapolis, Ind.). One container (containing a foreskin piece in PBS with Dispase II) was kept in a humid chamber in a fume hood. The other container (with the other half of the foreskin in PBS with Dispase II) was placed in the same fume hood in an environmental chamber perfused with humidified 100% CO. Both samples were maintained at room temperature for 24 hrs. Methods used to establish defined atmospheric conditions were identical to those used in Example 1. […]
Cells were inspected visually using an inverted phase contrast microscope. […] Quantitation of the number of viable keratinocytes as judged by colony formation was quantified for two of the three foreskins.

hif-1(ia04) embryos = experiment: Viability and suspended animation of nematodes in carbon monoxide based atmospheres (hif-1 mutant); type: in vivo, C. elegans
Text: Viability of nematodes in carbon monoxide based atmospheres. 30-60 embryos were harvested from continuously maintained Bristol N2 and […] strains as described above. Environmental chambers were continuously perfused at room temperature with pure CO (grade CP) or 500 ppm O2/CO at 70 cc/min for 24 hrs. To achieve 2500 ppm O2/CO or 2500 ppm O2/N2, 5000 ppm O2/N2 was mixed at a 1:1 ratio with either pure CO or pure N2 using two mass flow controllers (Sierra Instruments 810) to precisely monitor flow. Each gas was delivered into a 3-way valve (Cole-Parmer #A-30600-23) at 50 cc/min and the resulting mixture was then passed through a gas washing bottle and into an environmental chamber throughout the 24 hour exposure. All gases were supplied by Byrne Gas (Seattle, Wash.). The 500 ppm O2/CO mixture was certified to ±2% of the oxygen content and contained […] to ensure a consistent O2/CO ratio throughout the use of the tank.
Cell biological analysis. To determine the extent of developmental progression in nitrogen-based atmospheres (Table 2), 2-cell embryos were exposed to various degrees of hypoxia as described above and were either immediately photographed, or photographed following a […] recovery period in a humid chamber. […]

[5] = tested on: wild-type C. elegans embryos (Bristol N2); experiment: Viability and suspended animation of nematodes in carbon monoxide based atmospheres (wild-type); type: in vivo
Text: To achieve specific atmospheric conditions the following apparatus was used: a glass syringe barrel having a tip with a locking device such as a LUER-LOK with the large opening of the barrel sealed with a custom-machined steel and rubber fitting to make an airtight seal was locked to via locking device to the inlet port of an environmental chamber having an inlet and an outlet port each fitted with a locking devices such as a LUER-LOK fitting. A defined gas was humidified and provided to the environmental chamber by first venting the gas from a compressed tank (Byrne Specialty Gas, Seattle, Wash.) through a gas washing bottle (500 ml Kimex) filled with double distilled water. The gas washing bottle was connected to the environmental chamber past a gas-flow meter. A gas flow meter was used to provide a regulated 70 cc/min flow through the environmental chamber throughout the 24 hr incubation.
To test whether induced, reversible stasis could be achieved in C. elegans nematodes, 2-cell C. elegans embryos, L3 larvae or adult nematodes were collected and exposed to either an environment of effectively 100% CO, an environment of 100% N2, an environment comprising 500 ppm oxygen balanced with carbon monoxide, or to environments comprising 100, 500 or 1000 ppm oxygen balanced with nitrogen at room temperature. Nematodes were visualized using differential interference contrast microscopy (also known as Nomarski optics), images were collected and analyzed using NIH image and Adobe Photoshop 5.5. Embryos are approximately 50 μm in length.
Enviromental chambers and apparati. Oxygen deprivation experiments were carried out using a custom atmospheric chamber designed by W. Van Voorhies (Van Voorhies et al., 2000). The chamber is a 30 mL glass syringe (Fisher #14-825-10B) fitted with a custom steel stopper that is lined with two viton o-rings to ensure a tight seal. The stopper is bored through and has a steel lure lock on the exterior face so that a hose carrying compressed gas can be attached. A defined gas mixture is delivered to the chamber at a constant pressure and flow rate from compressed tanks by passing first through a rotometer (Aalborg, flow-tube number 032-41ST) or mass flow controller (Sierra Instruments #810) to monitor flow rate and then through a 500 ml gas washing bottle (Fisher #K28220-5001) containing 250 ml water to hydrate the gas. ¼″ OD nylon (Cole-Parmer #P-06489-06) or FEP (Cole-Parmer #A-06450-05) tubing was used and connections between tubing and the regulators and between the tubing and the rotometers were made with brass John-Guest-type fittings (Byrne Gas). All other connections were made with either microflow quick-connect fittings (Cole-Parmer #A-06363-57, #A-06363-52) or standard lure fittings (Cole-Parmer #A-06359-37, #A-06359-17).
Viability of nematodes in hypoxia. […] Log-phase, adult C. elegans were picked into a drop of sterile water containing 100 μg/ml ampicillin, 15 μg/ml tetracycline and 200 μg/ml streptomycin on a glass plate. Adults were chopped with a razor blade and 2-cell embryos were picked using a mouth pipet. 30-60 2-cell embryos were transferred to a small glass boat (custom made to fit atmospheric chambers, Avalon Glass Works, Seattle Wash.) filled with 3 ml of 1% agarose in M9. […] Embryos were scored for hatching 24 hours after exposure and hatched L1's were transferred to the surface of the NGM plate and followed to adulthood. […]

humans [6] = conditions: cited from earlier work

For S [H2S, hydrogen sulfide], the “perinatal exposure effect on cerebellar Purkinje cells” value (rats; 20 or 50 ppm, 7 hours per day, gestation through post-natal day 21) is given as “longer dendritic branches with reduced aborization of cerebellar Purkinje cells”, the “perinatal study, neuropathology and behavior of rat pups” value (rats; 80 ppm) is given as “no neuropathological effects or altered motor activity, passive avoidance, or acoustic startle response” and the “behavioral toxicity, avoidance responses” value (rats; moderate levels, immediately after end of exposure) is given as “inhibits discriminated avoidance responses”. For the same compound, the “behavioral toxicity, maze learning” value (rats; moderate levels) was “interferes with the ability of rats to learn a baited radial arm maze task”, the “toxicology, gross and histopathological examination” value (rats; rats, 80 ppm, 6 hrs per day, 5 days per week, 90 days) was “no observed adverse effect” and the “behavior compared to untreated animals” value (mice [1]; after 80 ppm, cabinet 10.5°C) was “no apparent change in the behavior”. The “behavior tests (SHIRPA protocol) before and after exposure” value (mice [1]; after gas exposure) was “no detectable behavioral differences”, the “behavior of the animals” value (mice [1]; four mice maintained for 4 weeks after 80 ppm, 6 hr, 15°C) was “no apparent change in the behavior” and the “acute effect of extreme levels” value (humans [2]) was “sudden collapse and unconsciousness”. The tolerability (mice [3]; exposures up to ten weeks) was “innocuous”, the “toxicology, gross and histopathological examination” value (mice [3]; mice, 6 hrs per day, 5 days per week, 90 days) was “no observed adverse effect” and the “core body temperature repeatedly reached on demand” value (mice [4]) was 13-15 °C.

For [C-]#[O+] [CO, carbon monoxide], the “keratinocyte growth (visual inspection)” value (human keratinocytes; all three populations, 100% CO 24 hr) was “significant growth”, the “cell survival in CO relative to room air” value (human keratinocytes; human skin, 100% CO, after 24 hrs) was 100 fold and the “viability (survival) to adulthood” value (hif-1(ia04) embryos; 0.25 kPa O2/CO, 24 hrs, hif-1(ia04) embryos) was 84.0%. The suspended animation (hif-1(ia04) embryos; 0.25 kPa O2 balanced with carbon monoxide, hif-1(ia04)) was “entered into suspended animation”, the suspended animation ([5]; 0.25 kPa O2 balanced with carbon monoxide, wild-type) was “entered into suspended animation” and the suspended animation ([5]; 100% CO (101 kPa CO), 24 hrs) was “entered into suspended animation”. The suspended animation ([5]; 100% CO (101 kPa CO), 24 hrs, listed as carbon monoxide) was “induced reversible suspended animation”, the lethality to nematodes ([5]; 100% CO, 24 hr, room temperature) was “not lethal” and the “suspended animation and survival” value ([5]; 500 ppm oxygen (0.05 kPa O2) balanced with carbon monoxide, 24 hrs) was “entered into suspended animation and survived; also recorded: arrested embryogenesis”. The symptoms in humans (humans [6]; 50 ppm) was “no symptoms”, the symptoms in humans (humans [6]; 200 ppm, within two-three hours) was “slight headache” and the symptoms in humans (humans [6]; 400 ppm, within one to two hours) was “frontal headache”. The symptoms in humans (humans [6]; 800 ppm, within 45 minutes) was “dizziness, nausea, and/or convulsions”, the symptoms in humans (humans [6]; 800 ppm, within two hours) was “insensible” and the lethality (humans [6]; around 1000 ppm, exposure more than around 1-2 minutes) was “can expire”.
